{"source": "patent US20130303564A1", "about": "“METHOD FOR TREATING A NEURODEGENERATIVE DISORDER” (RUSH UNIVERSITY MEDICAL CENTER, priority 2012, published 2013)", "key": {"primary mouse microglia": {"test_system": "primary mouse microglia", "assay": "LPS-induced NO (nitrite) production in primary mouse microglia", "format": "cell-based", "protocol": "(§1) Primary mouse microglia were treated with different concentrations of NaPB for 6 h followed by stimulation with LPS under serum-free condition. After 24 h of stimulation, concentrations of nitrite were measured in supernatants (A) and the level of iNOS protein was monitored in cells by Western blot (B). […] After 5 h of stimulation, the expression of iNOS mRNA was monitored by semi-quantitative RT-PCR (C). Cells preinctibated with different concentration of trichostatin A (TSA) and sodium butyrate (NaBu) for 6 h were stimulated with LPS for 24 h under serum-free condition followed by monitoring the level of nitrite in supernatants (p). […] Primary human astroglia isolated from fetal brain tissues were treated with different concentrations of NaPB for 6 h followed by stimulation with IL-1β under serum-free condition. After 48 h of stimulation, concentrations of nitrite (E) were measured in supernatants. Human astroglia plated at 70-80% confluence in 12-well plates were co-transfected with 0.25 μg of phiNOS(7.2)Luc and 12.5 ng of pRL-TK using the Lipofectamine-Plus (Invitrogen). Twenty-four h after transfection, cells received NaPB. After 6 h of incubation, cells were stimulated with IL-1β (20 ng/ml) for 12 h. Firefly (ff-Luc) and Renilla (r-Luc) luciferase activities were obtained by analyzing the total cell extract (F).\n(§2) Activated microglia and astroglia are known to produce excessive amount of NO having the potential of damaging neurons in neurodegenerative disorders. We investigated the effect of NaPB on the expression of iNOS in microglia. LPS is a prototype inducer of various proinflammatory molecules in different cell types including mouse microglia. Therefore, primary mouse microglia preincubated with different doses of NaPB for 6 h were stimulated with LPS under serum-free condition. […] We used trichostatin A (TSA) and sodium butyrate (NaBu) for this purpose.\n(§3) Isolation of Mouse Microglia: Microglia were isolated from mixed glial cultures. Briefly, on day 7-9, the mixed glial cultures were washed three times with Dulbecco's modified Eagle's medium/F-12 and subjected to shaking at 240 rpm for 2 h at 37° C. on a rotary shaker. The floating cells were washed and seeded on to plastic tissue culture flasks and incubated at 37° C. for 1 h. The attached cells were seeded onto new plates for further studies. […] Mouse BV-2 microglial cells (kind gift from Virginia Bocchini of Universityof Perugia) were also maintained and induced as indicated above."}, "iNOS [1]": {"test_system": "iNOS", "protocol": "as §1, with “(F). […]” for “(F).”"}, "microglia": {"test_system": "microglia", "conditions": "any of the concentrations tested (data not shown)", "protocol": "as §2"}, "IL-1β [2]": {"test_system": "IL-1β", "protocol": "as §2, §3"}, "TNF-α [3]": {"test_system": "TNF-α", "protocol": "as §2, §3"}, "IL-1β [4]": {"test_system": "IL-1β", "conditions": "200 mg/kg body wt/d from 3 h after last MPTP; RT-PCR, real-time PCR", "protocol": "(§4) A) Mice were treated with NaPB (200 mg/kg body wt/d) from 3 h after the last injection of MPTP. […] The mRNA expression of TNF-α, iNOS and IL-1β was analyzed by semi-quantitative RT-PCR (C) and quantitative real-time PCR (D).\n(§5) Semi-quantitative RT-PCR analysis for proinflammatory molecules (iNOS, IL-1β and TNF-α) and glial cell markers: Total RNA was isolated from ventral midbrain using Ultraspec-II RNA reagent (Biotecx .Laboratories, Inc., Houston, Tex.) following manufacturer's protocol. To remove any contaminating genomic DNA, total RNA was digested with DNase. RT-PCR was carried out using a RT-PCR kit (Clontech., Mountain View, Calif.) and following primers.\n(§6) Real-time PCR analysis: It was performed in the ABI-Prism7700 sequence detection system (Applied Biosystems, Foster City, Calif.) using TaqMan Universal Master mix and optimized concentrations of FAM-labeled probes and primers."}, "TNF-α [5]": {"test_system": "TNF-α", "conditions": "200 mg/kg body wt/d from 3 h after last MPTP; RT-PCR, real-time PCR", "protocol": "as §4, §5, §6"}, "iNOS [6]": {"test_system": "iNOS", "protocol": "as §4, §5, §6", "remark": "listed apart in the source"}, "phospho-IκBα": {"test_system": "phospho-IκBα", "conditions": "0.5 mM, 6 h preincubation, LPS 1 μg/ml", "description": "(A) BV-2 microglial cells preincubated with 0.5 mM NaPB for 6 h were stimulated with 1 μg/ml LPS. At different minute of stimulation, the level of phospho-1κBα was monitored by Western blot.\nActivation of NF-κB was monitored by IκBαphosphorylation, DNA binding activity by EMSA and transcriptional activity by reporter assays."}, "[7]": {"test_system": "RelA p65 at the mouse iNOS promoter", "conditions": "0.5 mM, 6 h preincubation, LPS 2 h; proximal NF-κB binding site", "description": "D) Cells preincubated with 0.5 mM NaPB for 6 h were stimulated with LPS for 2 h followed by monitoring the recruitment of RelA p65 to the mouse iNOS promoter by ChIP assay.\nTherefore, next we examined the effect of NaPB on the recruitment of p65 to the proximal NF-κB binding site of the iNOS promoter.\nChromatin immunoprecipitation (CUP): ChIP assays were performed using a ChIP assay kit (Upstate Biotechnology, Lake Placid, N.Y.). Briefly, 2×10^6 microglial cells preincubated with gemfibrozil for 6 h were stimulated with LPS. After 3 h of stimulation, cells were fixed by adding formaldehyde (1% final concentration), and cross-linked adducts were resuspended and sonicated, resulting in an average chromatin fragment size of 400 bp. ChIP was performed on the cell lysate by overnight incubation at 4° C. with 2 μg of antibodies against p65 followed by incubation with protein G agarose (Santa Cruz Biotechnology) for 2 h. The beads were washed and incubated with elution buMr. To reverse the cross-linking and purify the DNA, precipitates were incubated in a 65° C. incubator overnight and digested with proteinase K. DNA samples were then purified, precipitated, and precipitates were washed with 75% ethanol, air-dried, and resuspended in TE buffer."}, "p21^rac": {"test_system": "p21^rac", "conditions": "200 mg/kg body wt/day gavage from 1 d prior to MPTP; 6 h after last MPTP", "description": "A) Mice were treated with NaPB (200 mg/kg body wt/d.) via gavage from 1 d prior to MPTP injection. Six h after the last injection of MPTP, activation of p21^ras and p21^rac was monitored in ventral midbrain tissues. Experiment was repeated three times each time using two animal in each group. B) Bands from three different mice were quantified and activation of p21^ras and p21^rac is shown as percent of control, C) Mice were treated with NaPB (200 mg/kg body wt/d) from 3 h after the last injection of MPTP.\nAnimals and MPTP intoxications: Six- to eight-week old C57BL/6 mice were purchased from Harlan, Indianapolis, Ind. For acute MPTP intoxication, mice received four intraperitoneal (i.p.) injections of MPTP-HCl (18 mg/kg of free base; Sigma Chemical Co., St. Louis, Mo.) in saline at 2 hr intervals. Control animals received only saline."}, "NF-κB p65": {"test_system": "NF-κB p65", "conditions": "200 mg/kg body wt/day gavage from 3 h after last MPTP; 24 h after last MPTP", "excerpt": "Twenty-four h after the last injection of MPTP, ventral midbrain sections were immunostained for p65 (low magnification). Midbrain sections of MPTP-intoxicated mice were also double-labeled for p65 and glial cell markers (GFAP for astrocytes and CD11b for microglia). Results represent three independent experiments. D) NF-κB p65 positive cells counted in four nigral sections (two images per slide) from each of four mice in an Olympus IX81 fluorescence microscope using the MicroSuite™ imaging software are mentioned as cells/mm2. ^ap<0.0001 vs saline-control; ^bp<0.0001 vs MPTP.\nNext, mice were treated with NaPB (200 mg/kg body wt/day) via gavage from 3 h after the last injection of MPTP and the activation of NF-κB was examined 24 h after the last injection of MPTP.\nFor acute MPTP intoxication, mice received four intraperitoneal (i.p.) injections of MPTP-HCl (18 mg/kg of free base; Sigma Chemical Co., St. Louis, Mo.) in saline at 2 hr intervals. Control animals received only saline.\nFor immunofluorescence staining on fresh frozen sections, rat anti-mouse CD11b (1:100), goat anti-mouse GFAP (1:100), rabbit anti NF-κB p65 (1:100), goat anti-NF-κB p65 (1:100), rabbit anti NF-κB p50 (1:100), and rabbit anti-mouse iNOS (1:250) were used. The samples were mounted and observed under a Bio-Rad MRC1024ES confocal laser scanning microscope."}, "MPTP-intoxicated mice": {"test_system": "MPTP-intoxicated mice", "conditions": "NaPB 200 mg/kg body wt/day from 3 h after last MPTP; MPTP alone approximately 72% loss", "description": "We monitored the level of nigral GSH by HPLC.\nAnalysis of GSH: Nigral tissues were dissected and then sonicated in 0.2M perchloric acid solution followed by centrifugation of nigral extracts at 12,000 rpm for 10 mins at 4° C. Resulting supernatants were analyzed for GSH in Complete Stand-Alone HPLC-ECD System EiCOMHTEC-500 using gold working electrode (Eicorn We-AU) and mobile phase containing 99% 0.1M sodium phosphate buffer (pH 2.5), 1% MeOH. (v/v), and 50 mg/L EDTA-2Na."}, "[8]": {"test_system": "chronic MPTP mouse model of PD", "conditions": "oral 100 mg/kg body wt/d from the third injection of MPTP/probenecid", "description": "A) Six to eight week old male C57BL/6 mice received 10 injections of MPTP (s.c.; 25 mg/kg body weight) together with 10 injections of probenecid (i.p.; 250 mg/kg body weight) for 5 weeks. Control group of mice received only saline. One group of mice were treated with NaPB (100 mg/kg body weight/d) via gavage from the 3rd injection of MPTP/probenecid and continued for 1 week thereafter. Mice were tested for different motor tasks [horizontal activity (C), number of movements (D), rearing (E), and stereotypy (F)] one week after the last injection of MPTP followed by measuring the level of DA in striatum (B). Data are means+SEM of eight mice per group. ^ap<0.001 vs saline; ^bp<0.001 vs MPTP; p<0.05 vs saline; ^dp<0.05 vs MPTP.\nWe examined if NaPB was capable of protecting neurons in a chronic model (FIG. 10A). […] We initiated oral NaPB treatment (100 mg/kg body wt/d) from the third injection of MPTP/probenecid (FIG. 10A). […]\nBehavioral analyses: Two types of behavioral experiments were conducted. This included open field experiment for locomotor activity and rotorod experiment for feet movement. .Locomotor activity was measured after 7 d of the last dose of MPTP injection in Digiscan Monitor (Omnitech Electronics, Inc., Columbus, Ohio). […] [sequence] software was used to analyze and store horizontal and vertical activity data, which were monitored automatically by infra-red beams."}, "[9]": {"conditions": "LPS + NaPB (0.1 mM), 6 hrs preincubation, LPS 24 hrs, supernatant ELISA"}, "[10]": {"conditions": "LPS + NaPB (0.2 mM), 6 hrs preincubation, LPS 24 hrs, supernatant ELISA"}, "[11]": {"conditions": "LPS + NaPB (0.5 mM), 6 hrs preincubation, LPS 24 hrs, supernatant ELISA"}, "[12]": {"conditions": "200 mg/kg body wt/d gavage from 1 d prior to MPTP, all time points tested (up to 24 h)"}}, "note": "Like-named read-outs stand apart in the source and are kept apart here. Marks after values point to notes of the source that are not given here.", "data": [{"substance": "sodium phenylbutyrate [NaPB]", "values": [{"measurement": "inhibition of LPS-induced production of NO", "setting": "primary mouse microglia; 1 or 2 h preincubation (data not shown)", "result": "not sufficient"}, {"measurement": "inhibition of LPS-induced production of NO", "setting": "primary mouse microglia; higher concentrations (>200 μM), 6 h preincubation", "result": "markedly suppressed"}, {"measurement": "inhibition of LPS-induced production of NO", "setting": "primary mouse microglia; lower concentration (100 μM), 6 h preincubation", "result": "not effective"}, {"measurement": "LPS-induced mRNA expression of iNOS", "setting": "iNOS [1]; RT-PCR, 5 h LPS", "result": "dose-dependently inhibited"}, {"measurement": "LPS-induced protein expression of iNOS", "setting": "iNOS [1]; Western blot, 24 h LPS", "result": "dose-dependently inhibited"}, {"measurement": "toxicity to microglia (MTT)", "setting": "microglia", "result": "not toxic"}, {"measurement": "IL-1β production", "setting": "IL-1β [2]; [9]", "result": "9.9 ± 1.4", "unit": "ng/mg protein/24 hr"}, {"measurement": "IL-1β production", "setting": "IL-1β [2]; [10]", "result": "7.5 ± 1.1", "unit": "ng/mg protein/24 hr"}, {"measurement": "IL-1β production", "setting": "IL-1β [2]; [11]", "result": "5.3 ± 0.6^a ng/mg protein/24 hr"}, {"measurement": "IL-1β production", "setting": "IL-1β [2]; NaPB (0.5 mM) only, no LPS", "result": 0, "unit": "ng/mg protein/24 hr"}, {"measurement": "production of IL-1β protein in activated microglia", "setting": "IL-1β [2]; Table 1", "result": "dose-dependently inhibited"}, {"measurement": "TNF-α production", "setting": "TNF-α [3]; [9]", "result": "16.8 ± 1.5", "unit": "ng/mg protein/24 hr"}, {"measurement": "TNF-α production", "setting": "TNF-α [3]; [10]", "result": "12.7 ± 0.8", "unit": "ng/mg protein/24 hr"}, {"measurement": "TNF-α production", "setting": "TNF-α [3]; [11]", "result": "8.6 ± 1.1^a ng/mg protein/24 hr"}, {"measurement": "TNF-α production", "setting": "TNF-α [3]; NaPB (0.5 mM) only, no LPS", "result": 0, "unit": "ng/mg protein/24 hr"}, {"measurement": "production of TNF-α protein in activated microglia", "setting": "TNF-α [3]; Table 1", "result": "dose-dependently inhibited"}, {"measurement": "MPTP-induced mRNA expression of IL-1β in the nigra", "setting": "IL-1β [4]", "result": "strongly inhibited"}, {"measurement": "MPTP-induced mRNA expression of TNF-α in the nigra", "setting": "TNF-α [5]", "result": "strongly inhibited"}, {"measurement": "MPTP-induced mRNA expression of iNOS in the nigra", "setting": "iNOS [6]; 200 mg/kg body wt/d from 3 h after last MPTP, RT-PCR, real-time PCR", "result": "strongly inhibited"}, {"measurement": "expression of iNOS mRNA in the nigra, time course", "setting": "iNOS [6]; [12]", "result": "markedly inhibited"}, {"measurement": "MPTP-induced expression of iNOS protein", "setting": "iNOS [6]; 200 mg/kg body wt/d oral from 3 h after last MPTP, 24 h", "result": "suppressed"}, {"measurement": "LPS-induced phosphorylation of IκBα", "setting": "phospho-IκBα", "result": "inhibited"}, {"measurement": "recruitment of p65 to the iNOS promoter", "setting": "[7]", "result": "inhibited"}, {"measurement": "activation of p21^ras in the nigra, time course", "setting": "p21^ras; [12]", "result": "markedly inhibited"}, {"measurement": "MPTP-induced activation of p21^ras in the nigra", "setting": "p21^ras; 200 mg/kg body wt/day gavage from 1 d prior to MPTP, 6 h after last MPTP", "result": "much decreased activation"}, {"measurement": "MPTP-induced activation of p21^rac in the nigra", "setting": "p21^rac", "result": "much decreased activation"}, {"measurement": "level of p65 in the SNpc", "setting": "NF-κB p65", "result": "markedly inhibited"}, {"measurement": "loss of nigral GSH", "setting": "MPTP-intoxicated mice", "result": 18, "unit": "%"}, {"measurement": "locomotor activities (horizontal activity, number of movements, rearing, stereotypy)", "setting": "[8]", "result": "improved"}]}]}
